# From US8513446B2, “Stable crystal modifications of DOPC” (Merck Patent GmbH, priority 2008, dated 2013)
# What was measured:
# [1] = Hygroscopicity of solid DOPC; format: physicochemical
# Description: In addition, waxy DOPC can only be comminuted with difficulty and, like lyophilised DOPC, can only be weighed out with difficulty. This makes handling of this compound much more difficult.
# [2] = stored under a protective gas at −20° C.; cited from earlier work
# [3] = Storage stability of crystalline DOPC, residual content by HPLC; format: physicochemical; settings: exclusion of air
# Description: In order to determine the stability of crystalline DOPC, the substances are stored together with comparative samples at 25° C. and 60% relative humidity and at 40° C. and 75% relative humidity with exclusion of air. The residual content of DOPC is measured at periodic intervals and indicated compared with the initial value. Purity and content of DOPC are determined by HPLC. For the type I crystal modification, the following values were found: […]
# [4] = 25° C./60% relative humidity, storage time 0 months
# [5] = 25° C./60% relative humidity, storage time 3 months
# [6] = 25° C./60% relative humidity, storage time 6 months
# [7] = 25° C./60% relative humidity, storage time 9 months
# [8] = 25° C./60% relative humidity, storage time 12 months
# [9] = 25° C./60% relative humidity, storage time 18 months
# [10] = 40° C./75% relative humidity, storage time 0 months
# [11] = 40° C./75% relative humidity, storage time 3 months
# [12] = 40° C./75% relative humidity, storage time 6 months
# [13] = 40° C./75% relative humidity, storage time 9 months
# [14] = 40° C./75% relative humidity, storage time 12 months
compound,measurement,setting,value
CCCCCCCC/C=C\CCCCCCCC(=O)OC[C@H](COP(=O)([O-])OCC[N+](C)(C)C)OC(=O)CCCCCCC/C=C\CCCCCCCC [Crystalline DOPC],hygroscopicity,[1],improved hygroscopicity
"CCCCCCCC/C=C\CCCCCCCC(=O)OC[C@H](COP(=O)([O-])OCC[N+](C)(C)C)OC(=O)CCCCCCC/C=C\CCCCCCCC [amorphous DOPC, reference compound]",hygroscopicity,[1],extremely hygroscopic
CCCCCCCC/C=C\CCCCCCCC(=O)OC[C@H](COP(=O)([O-])OCC[N+](C)(C)C)OC(=O)CCCCCCC/C=C\CCCCCCCC [lyophilised DOPC],guaranteed shelf life,[2],about 12 months
"CCCCCCCC/C=C\CCCCCCCC(=O)OC[C@H](COP(=O)([O-])OCC[N+](C)(C)C)OC(=O)CCCCCCC/C=C\CCCCCCCC [type I crystalline (R)-DOPC, 1,2-dioleoyl-sn-glycero-3-phosphocholine]",purity of DOPC (HPLC) compared with the initial value,[3]; [4],100.0 Area-%
same,residual content of DOPC compared with the initial value,[3]; [4],100.0 % by weight
same,purity of DOPC (HPLC) compared with the initial value,[3]; [5],100.0 Area-%
same,residual content of DOPC compared with the initial value,[3]; [5],100.9 % by weight
same,purity of DOPC (HPLC) compared with the initial value,[3]; [6],100.0 Area-%
same,residual content of DOPC compared with the initial value,[3]; [6],99.3 % by weight
same,purity of DOPC (HPLC) compared with the initial value,[3]; [7],100.0 Area-%
same,residual content of DOPC compared with the initial value,[3]; [7],100.8 % by weight
same,purity of DOPC (HPLC) compared with the initial value,[3]; [8],99.7 Area-%
same,residual content of DOPC compared with the initial value,[3]; [8],100.4 % by weight
same,purity of DOPC (HPLC) compared with the initial value,[3]; [9],99.8 Area-%
same,residual content of DOPC compared with the initial value,[3]; [9],100.6 % by weight
same,purity of DOPC (HPLC) compared with the initial value,[3]; [10],100.0 Area-%
same,residual content of DOPC compared with the initial value,[3]; [10],100.0 % by weight
same,purity of DOPC (HPLC) compared with the initial value,[3]; [11],99.9 Area-%
same,residual content of DOPC compared with the initial value,[3]; [11],100.0 % by weight
same,purity of DOPC (HPLC) compared with the initial value,[3]; [12],99.8 Area-%
same,residual content of DOPC compared with the initial value,[3]; [12],98.4 % by weight
same,purity of DOPC (HPLC) compared with the initial value,[3]; [13],99.8 Area-%
same,residual content of DOPC compared with the initial value,[3]; [13],99.8 % by weight
same,purity of DOPC (HPLC) compared with the initial value,[3]; [14],99.7 Area-%
same,residual content of DOPC compared with the initial value,[3]; [14],99.5 % by weight
